Experimental data from PubChem BioAssay AID330 (DTP/NCI, 2004).
“And” between values parts separate entries of the source, which are not always exact repeats. Equal entries are not always repeated. Inconclusive results and toxic doses are left out.

Tested on: P388 leukemia ip, CD2F1 mice, survival T/C
Test: NCI In Vivo Anticancer Drug Screen. Data for tumor model P388 Leukemia (intraperitoneal) in CD2F1 (CDF1) mice
Settings: endpoint: median survival time, higher = longer survival
Summary of the method: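 Mice carrying the transplanted tumor received test compound or vehicle. Survival was recorded in each group, and the value is the treated-group measurement divided by that of the vehicle-treated control group.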

[1] = dose: 12.5 mg/kg/injection, schedule: Q01DX009 (ip), vehicle: saline with Tween-80
[2] = dose: 25.0 mg/kg/injection, schedule: Q01DX009 (ip), vehicle: saline with Tween-80
[3] = dose: 60.0 mg/kg/injection, schedule: Q01DX005 (ip), vehicle: saline with Tween-80
[4] = dose: 120.0 mg/kg/injection, schedule: Q01DX005 (ip), vehicle: saline with Tween-80
[5] = dose: 240.0 mg/kg/injection, schedule: Q01DX005 (ip), vehicle: saline with Tween-80
[6] = dose: 25.0 mg/kg/injection, schedule: Q01DX005 (ip), vehicle: saline with Tween-80
[7] = dose: 50.0 mg/kg/injection, schedule: Q01DX005 (ip), vehicle: saline with Tween-80
[8] = dose: 100.0 mg/kg/injection, schedule: Q01DX005 (ip), vehicle: saline with Tween-80
[9] = dose: 200.0 mg/kg/injection, schedule: Q01DX005 (ip), vehicle: saline with Tween-80
[10] = dose: 50.0 mg/kg/injection, schedule: Q01DX009 (ip), vehicle: Klucel (hydroxypropylcellulose) (HPC)
[11] = dose: 100.0 mg/kg/injection, schedule: Q01DX009 (ip), vehicle: Klucel (hydroxypropylcellulose) (HPC)
[12] = dose: 100.0 mg/kg/injection, schedule: Q01DX009 (ip), vehicle: saline
[13] = dose: 100.0 mg/kg/injection, schedule: Q04DX003 (ip), vehicle: saline
[14] = dose: 200.0 mg/kg/injection, schedule: Q01DX009 (ip), vehicle: Klucel (hydroxypropylcellulose) (HPC)
[15] = dose: 50.0 mg/kg/injection, schedule: Q01DX005 (ip), vehicle: Klucel (hydroxypropylcellulose) (HPC)
[16] = dose: 100.0 mg/kg/injection, schedule: Q01DX005 (ip), vehicle: Klucel (hydroxypropylcellulose) (HPC)
[17] = dose: 200.0 mg/kg/injection, schedule: Q01DX005 (ip), vehicle: Klucel (hydroxypropylcellulose) (HPC)
[18] = dose: 100.0 mg/kg/injection, schedule: Q01DX001 (ip), vehicle: saline with Tween-80
[19] = dose: 200.0 mg/kg/injection, schedule: Q01DX001 (ip), vehicle: saline with Tween-80
[20] = dose: 400.0 mg/kg/injection, schedule: Q01DX001 (ip), vehicle: saline with Tween-80

In the case of `CC(N)(CCS(=O)CP(=O)(O)O)C(=O)O` (stereo not given), the T/C (dose: 60.0 mg/kg/injection, schedule: Q01DX005 (ip), vehicle: saline) is reported as 100 % of control and the T/C (dose: 120.0 mg/kg/injection, schedule: Q01DX005 (ip), vehicle: saline) is reported as 94 % of control.
With `CC(=O)NC(=S)Nc1cccs1` the T/C [1] was 99 % of control, the T/C [2] was 103 % of control and the T/C (dose: 50.0 mg/kg/injection, schedule: Q01DX009 (ip), vehicle: saline with Tween-80) was 95 % of control.
With `CC(=O)/C(C(=N)c1nc(C)c(C(=O)c2ccccc2)c(C(N)=O)n1)=C(/O)c1ccccc1` the T/C (dose: 100.0 mg/kg/injection, schedule: Q01DX001 (ip), vehicle: Klucel (hydroxypropylcellulose) (HPC)) was 90 % of control, the T/C (dose: 200.0 mg/kg/injection, schedule: Q01DX001 (ip), vehicle: Klucel (hydroxypropylcellulose) (HPC)) was 88 % of control and the T/C (dose: 400.0 mg/kg/injection, schedule: Q01DX001 (ip), vehicle: Klucel (hydroxypropylcellulose) (HPC)) was 89 % of control.
`CC1CCCCC1NC(=O)NCCOC(=O)OCCNC(=O)NC1CCCCC1C` (stereo not given) was tested, and the T/C (dose: 100.0 mg/kg/injection, schedule: Q04DX003 (ip), vehicle: saline with Tween-80) was 90 % of control, the T/C (dose: 200.0 mg/kg/injection, schedule: Q04DX003 (ip), vehicle: saline with Tween-80) was 86 % of control and the T/C (dose: 400.0 mg/kg/injection, schedule: Q04DX003 (ip), vehicle: saline with Tween-80) was 86 % of control.
For `Nc1cccc2[nH]c(=O)c3ccccc3c12`, the T/C [3] was 93 % of control, the T/C [4] was 105 % of control and the T/C [5] was 106 % of control.
For `CCC/C(=N\NC(=S)N1CCCCCC1)c1ccccn1`, the T/C [6] was 117 % of control and the T/C [7] was 124 % of control.
`O=C1[C@H]2CCC[C@H]2[C@H]2CCC[C@@H]12` was tested, and the T/C [2] was 112 % of control, the T/C (dose: 100.0 mg/kg/injection, schedule: Q01DX009 (ip), vehicle: saline with Tween-80) was 119 % of control and the T/C (dose: 200.0 mg/kg/injection, schedule: Q01DX009 (ip), vehicle: saline with Tween-80) was 105 % of control.
With `CS(=O)(=O)CS(=O)CS(=O)CS(=O)CC(NC(=O)CCC(N)C(=O)O)C(=O)O` (stereo not given) the T/C (dose: 12.5 mg/kg/injection, schedule: Q01DX005 (ip), vehicle: saline) was 96 % of control, the T/C (dose: 25.0 mg/kg/injection, schedule: Q01DX005 (ip), vehicle: saline) was 98 % of control and the T/C (dose: 50.0 mg/kg/injection, schedule: Q01DX005 (ip), vehicle: saline) was 97 % of control. The T/C (dose: 100.0 mg/kg/injection, schedule: Q01DX005 (ip), vehicle: suspension in saline) was 108 % of control.
`O=C(O)/C(=C/c1cccs1)c1ccc(F)cc1` was tested, and the T/C [3] was 110 % of control, the T/C [4] was 102 % of control and the T/C [5] was 104 % of control.
In the case of `CC1(O)C(=O)OC(CO)C1O` (stereo not given), the T/C [7] is reported as 102 % of control, the T/C [8] is reported as 102 % of control and the T/C [9] is reported as 100 % of control.
In the case of `CCc1cccc(CC)c1NC(=O)c1ccccc1Br`, the T/C [3] is reported as 97 % of control, the T/C [4] is reported as 96 % of control and the T/C [5] is reported as 112 % of control.
In the case of `CC(=O)NNc1ccc(Cl)cc1[N+](=O)[O-]`, the T/C [10] is reported as 96 % of control and the T/C [11] is reported as 101 % of control.
In the case of `CC(COC(=O)c1cccc([N+](=O)[O-])c1C(=O)O)c1ccccc1` (stereo not given), the T/C (dose: 100.0 mg/kg/injection, schedule: Q04DX002 (ip), vehicle: saline with Tween-80) is reported as 98 % of control, the T/C (dose: 200.0 mg/kg/injection, schedule: Q04DX002 (ip), vehicle: saline with Tween-80) is reported as 109 % of control and the T/C (dose: 400.0 mg/kg/injection, schedule: Q04DX002 (ip), vehicle: saline with Tween-80) is reported as 110 % of control.
`N=[N+]=CC(=O)CC(N)C(=O)O` (stereo not given) was tested, and the T/C [12] was 117 % of control, the T/C [13] was 92 % of control and the T/C (dose: 200.0 mg/kg/injection, schedule: Q04DX003 (ip), vehicle: saline) was 100 % of control. The T/C (dose: 400.0 mg/kg/injection, schedule: Q04DX003 (ip), vehicle: saline) was 100 % of control.
With `NCC[Se][Se]CCN` the T/C (dose: 1.56 mg/kg/injection, schedule: Q01DX009 (ip), vehicle: saline) was 98 % of control, the T/C (dose: 3.12 mg/kg/injection, schedule: Q01DX009 (ip), vehicle: saline) was 98 % of control and the T/C (dose: 6.25 mg/kg/injection, schedule: Q01DX009 (ip), vehicle: saline) was 104 % of control.
`CC1(C)O[C@H]2CC(=O)OC[C@@]23[C@H]1CC(=O)[C@@]1(C)C2=CCC(c4ccoc4)[C@]2(C)CC[C@@H]13` (stereo not given in full) was tested, and the T/C (dose: 3.12 mg/kg/injection, schedule: Q01DX005 (ip), vehicle: distilled water + Tween-80) was 95 % of control, the T/C (dose: 6.25 mg/kg/injection, schedule: Q01DX005 (ip), vehicle: distilled water + Tween-80) was 99 % of control and the T/C (dose: 12.5 mg/kg/injection, schedule: Q01DX005 (ip), vehicle: distilled water + Tween-80) was 102 % of control. For the same compound, the T/C (dose: 25.0 mg/kg/injection, schedule: Q01DX005 (ip), vehicle: distilled water + Tween-80) was 116 % of control and the T/C (dose: 50.0 mg/kg/injection, schedule: Q01DX005 (ip), vehicle: distilled water + Tween-80) was 92 % of control.
In the case of `Cc1ccc(N=Nc2ccc(N(CCCl)CCCl)cc2C)c(C(=O)O)c1`, the T/C [1] is reported as 153 % of control and 177 % of control and the T/C [2] is reported as 123 % of control.
`O=C1NC(=O)C(SSC2C(=O)NC(=O)NC2=O)C(=O)N1` was tested, and the T/C [10] was 109 % of control, the T/C [11] was 95 % of control and the T/C [14] was 94 % of control.
`O=C(Nc1ccccc1)C1(c2ccccc2)CCCCC1` was tested, and the T/C (dose: 25.0 mg/kg/injection, schedule: Q01DX005 (ip), vehicle: Klucel (hydroxypropylcellulose) (HPC)) was 101 % of control, the T/C [15] was 99 % of control and the T/C [16] was 100 % of control. The T/C [17] was 93 % of control.
With `CN1C(=O)c2ccc3c4ccc5c(=O)n6c7ccccc7nc6c6ccc(c7ccc(c2c37)C1=O)c4c56` the T/C [15] was 102 % of control, the T/C [16] was 105 % of control and the T/C [17] was 97 % of control.
In the case of `O=C1NC(O)c2cc([N+](=O)[O-])ccc2O1` (stereo not given), the T/C [7] is reported as 100 % of control and 107 % of control, the T/C [8] is reported as 102 % of control and 115 % of control and the T/C [9] is reported as 100 % of control and 120 % of control.
In the case of `O=C(CBr)Nc1ccc(Cc2ccc(NC(=O)CBr)cc2)cc1`, the T/C [18] is reported as 99 % of control, the T/C [19] is reported as 93 % of control and the T/C [20] is reported as 94 % of control.
`CCCCCCCCC[N+]1([O-])CCOCC1` was tested, and the T/C (dose: 50.0 mg/kg/injection, schedule: Q01DX009 (ip), vehicle: saline) was 100 % of control, the T/C [12] was 97 % of control and the T/C (dose: 200.0 mg/kg/injection, schedule: Q01DX009 (ip), vehicle: saline) was 88 % of control.
For `O=C(Nc1ccccc1)c1cnc[nH]1`, the T/C (dose: 25.0 mg/kg/injection, schedule: Q01DX009 (ip), vehicle: Klucel (hydroxypropylcellulose) (HPC)) was 99 % of control, the T/C [10] was 102 % of control and the T/C [11] was 102 % of control. For the same compound, the T/C [14] was 96 % of control.
In the case of `CCOC(=O)N1C(C)=CC=C/C1=C/C=C(C#N)C#N`, the T/C [18] is reported as 94 % of control, the T/C [19] is reported as 90 % of control and the T/C [20] is reported as 89 % of control.
With `[Cl][Ru]([Cl])([Cl])([Cl])([Cl])[Cl]` the T/C (dose: 6.25 mg/kg/injection, schedule: Q04DX003 (ip), vehicle: saline) was 117 % of control and 123 % of control, the T/C (dose: 12.5 mg/kg/injection, schedule: Q04DX003 (ip), vehicle: saline) was 117 % of control and 123 % of control and the T/C (dose: 25.0 mg/kg/injection, schedule: Q04DX003 (ip), vehicle: saline) was 117 % of control. The T/C (dose: 50.0 mg/kg/injection, schedule: Q04DX003 (ip), vehicle: saline) was 123 % of control and the T/C [13] was 111 % of control.
For `Cn1c(=O)ccc2c1nc1ccccc1[n+]2[O-]`, the T/C [3] was 101 % of control and the T/C [4] was 102 % of control.
With `Cc1nnc2c3nccn3ccn12` the T/C (dose: 12.5 mg/kg/injection, schedule: Q01DX001 (ip), vehicle: saline with Tween-80) was 106 % of control, the T/C (dose: 25.0 mg/kg/injection, schedule: Q01DX001 (ip), vehicle: saline with Tween-80) was 101 % of control and the T/C (dose: 50.0 mg/kg/injection, schedule: Q01DX001 (ip), vehicle: saline with Tween-80) was 106 % of control.
With `CC(C)=CCC(OC(=O)CC(C)C)C1=CC(=O)c2c(O)ccc(O)c2C1=O` (stereo not given) the T/C (dose: 6.25 mg/kg/injection, schedule: Q01DX005 (ip), vehicle: saline with Tween-80) was 94 % of control, the T/C (dose: 12.5 mg/kg/injection, schedule: Q01DX005 (ip), vehicle: saline with Tween-80) was 103 % of control and the T/C [6] was 99 % of control.
